From ChEMBL document CHEMBL1201862, “PubChem BioAssay data set” (2004)
Where “and” joins values, the source holds several entries; their conditions need not be identical. Identical values can stand only once.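 The compound was tested at five concentrations on cells cultured in 96-well plates, with a 48-hour exposure period. GI50 = concentration required for 50% inhibition of growth.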 Calls of active or inactive are those of the source. No stated cut-off is given here; in the data, active = GI50 up to about 1.1 µM and inactive = higher.

Key:
Test in all cases: NCI-60 cell line screen, 48 h
786-0 = test system: 786-0
A498 = test system: A498
A549 = test system: A549
ACHN = test system: ACHN
BT-549 = test system: BT-549
CAKI-1 = test system: CAKI-1
CCRF-CEM = test system: CCRF-CEM
COLO 205 = test system: COLO 205
DU-145 = test system: DU-145
EKVX = test system: EKVX
HCC 2998 = test system: HCC 2998
HCT-116 = test system: HCT-116
HCT-15 = test system: HCT-15
HL-60 = test system: HL-60
HOP-62 = test system: HOP-62
HOP-92 = test system: HOP-92
HT-29 = test system: HT-29
Hs-578T = test system: Hs-578T
IGROV-1 = test system: IGROV-1
K562 = test system: K562
KM12 = test system: KM12
LOX IMVI = test system: LOX IMVI
M14 = test system: M14
MCF7 = test system: MCF7
MDA-MB-435 = test system: MDA-MB-435
MDA-N = test system: MDA-N
MOLT-4 = test system: MOLT-4
Malme-3M = test system: Malme-3M
NCI-H23 = test system: NCI-H23
NCI-H522 = test system: NCI-H522
NCI/ADR-RES = test system: NCI/ADR-RES
OVCAR-3 = test system: OVCAR-3
OVCAR-4 = test system: OVCAR-4
OVCAR-5 = test system: OVCAR-5
OVCAR-8 = test system: OVCAR-8
PC-3 = test system: PC-3
RPMI-8226 = test system: RPMI-8226
RXF 393 = test system: RXF 393
SF-268 = test system: SF-268
SF-539 = test system: SF-539
SK-MEL-28 = test system: SK-MEL-28
SK-MEL-2 = test system: SK-MEL-2
SK-MEL-5 = test system: SK-MEL-5
SN12C = test system: SN12C
SNB-75 = test system: SNB-75
SR = test system: SR
SW-620 = test system: SW-620
T47D = test system: T47D
TK-10 = test system: TK-10
UACC-257 = test system: UACC-257
UACC-62 = test system: UACC-62
UO-31 = test system: UO-31
NCI-H226 = test system: NCI-H226
NCI-H460 = test system: NCI-H460
SF-295 = test system: SF-295
SK-OV-3 = test system: SK-OV-3
SNB-19 = test system: SNB-19
U-251 = test system: U-251
MDA-MB-231 = test system: MDA-MB-231

C(=N\c1ccc(-c2nc3ccccc3[nH]2)cc1)/c1ccc[nH]1
GI50 (786-0): 83.4 µM (inactive)
GI50 (A498): 69.5 µM (inactive)
GI50 (A549): > 100 µM (inactive)
GI50 (ACHN): > 100 µM (inactive)
GI50 (BT-549): > 100 µM (inactive)
GI50 (CAKI-1): > 100 µM (inactive)
GI50 (CCRF-CEM): 11.4 µM (inactive)
GI50 (COLO 205): 41.3 µM (inactive)
GI50 (DU-145): > 100 µM (inactive)
GI50 (EKVX): > 100 µM (inactive)
GI50 (HCC 2998): 29.5 µM (inactive)
GI50 (HCT-116): 50.9 µM (inactive)
GI50 (HCT-15): 76.6 µM
GI50 (HL-60): 1.91 µM (inactive)
GI50 (HOP-62): 3.94 µM (inactive)
GI50 (HOP-92): > 100 µM (inactive)
GI50 (HT-29): 78.5 µM (inactive)
GI50 (Hs-578T): 4.3 µM (inactive)
GI50 (IGROV-1): > 100 µM (inactive)
GI50 (K562): 41.3 µM (inactive)
GI50 (KM12): 44.6 µM (inactive)
GI50 (LOX IMVI): 76.6 µM (inactive)
GI50 (M14): > 100 µM (inactive)
GI50 (MCF7): 25.7 µM (inactive)
GI50 (MDA-MB-435): 41.8 µM (inactive)
GI50 (MDA-N): 34.2 µM (inactive)
GI50 (MOLT-4): 28.8 µM (inactive)
GI50 (Malme-3M): > 100 µM (inactive)
GI50 (NCI-H23): > 100 µM (inactive)
GI50 (NCI-H522): 35 µM (inactive)
GI50 (NCI/ADR-RES): > 100 µM (inactive)
GI50 (OVCAR-3): 69 µM (inactive)
GI50 (OVCAR-4): 54.2 µM (inactive)
GI50 (OVCAR-5): > 100 µM (inactive)
GI50 (OVCAR-8): 83.9 µM (inactive)
GI50 (PC-3): 70.8 µM (inactive)
GI50 (RPMI-8226): 37.8 µM (inactive)
GI50 (RXF 393): 76.2 µM (inactive)
GI50 (SF-268): 30.3 µM (inactive)
GI50 (SF-539): > 100 µM (inactive)
GI50 (SK-MEL-28): > 100 µM (inactive)
GI50 (SK-MEL-2): > 100 µM (inactive)
GI50 (SK-MEL-5): 30.3 µM (inactive)
GI50 (SN12C): 63.2 µM (inactive)
GI50 (SNB-75): > 100 µM (inactive)
GI50 (SR): 33.1 µM (inactive)
GI50 (SW-620): 73.3 µM (inactive)
GI50 (T47D): 40.3 µM (inactive)
GI50 (TK-10): > 100 µM (inactive)
GI50 (UACC-257): > 100 µM (inactive)
GI50 (UACC-62): 55.3 µM (inactive)
GI50 (UO-31): 69.3 µM (inactive)

N=C1NC(c2ccc(Cl)cc2)=CC(c2cccc(Cl)c2)S1 (stereo not given)
GI50 (786-0): 36.1 µM (inactive)
GI50 (A549): 24.7 µM (inactive)
GI50 (ACHN): 24.4 µM (inactive)
GI50 (BT-549): 63.5 µM (inactive)
GI50 (CAKI-1): 24.1 µM (inactive)
GI50 (CCRF-CEM): 22.4 µM (inactive)
GI50 (COLO 205): 16.4 µM (inactive)
GI50 (DU-145): 66.1 µM (inactive)
GI50 (EKVX): 25.4 µM (inactive)
GI50 (HCC 2998): 27.7 µM (inactive)
GI50 (HCT-116): 26.4 µM (inactive)
GI50 (HCT-15): 13.1 µM
GI50 (HL-60): 38 µM (inactive)
GI50 (HOP-62): 38.7 µM (inactive)
GI50 (HOP-92): 16.9 µM (inactive)
GI50 (HT-29): 30.8 µM (inactive)
GI50 (Hs-578T): 26.5 µM (inactive)
GI50 (IGROV-1): 30.9 µM (inactive)
GI50 (K562): 34.3 µM (inactive)
GI50 (KM12): 27 µM (inactive)
GI50 (LOX IMVI): 33.7 µM (inactive)
GI50 (M14): 48.4 µM (inactive)
GI50 (MCF7): 24.8 µM (inactive)
GI50 (MDA-MB-435): 18.2 µM (inactive)
GI50 (MDA-N): 21.2 µM (inactive)
GI50 (MOLT-4): 37.4 µM (inactive)
GI50 (Malme-3M): 38 µM (inactive)
GI50 (NCI-H226): 26.7 µM (inactive)
GI50 (NCI-H23): 34.8 µM (inactive)
GI50 (NCI-H460): 26.4 µM (inactive)
GI50 (NCI-H522): 20.1 µM (inactive)
GI50 (NCI/ADR-RES): 45.4 µM (inactive)
GI50 (OVCAR-3): 41.7 µM (inactive)
GI50 (OVCAR-4): 20.3 µM (inactive)
GI50 (OVCAR-5): 66.8 µM (inactive)
GI50 (OVCAR-8): 38.6 µM (inactive)
GI50 (PC-3): 28.2 µM (inactive)
GI50 (RPMI-8226): 17.3 µM (inactive)
GI50 (RXF 393): 23.8 µM (inactive)
GI50 (SF-268): 41.8 µM (inactive)
GI50 (SF-295): 33.8 µM (inactive)
GI50 (SF-539): 48.8 µM (inactive)
GI50 (SK-MEL-2): 20.6 µM (inactive)
GI50 (SK-MEL-5): 27 µM (inactive)
GI50 (SK-OV-3): 36.3 µM (inactive)
GI50 (SN12C): 27.7 µM (inactive)
GI50 (SNB-19): 16.8 µM (inactive)
GI50 (SR): 28.7 µM (inactive)
GI50 (SW-620): 34.5 µM (inactive)
GI50 (T47D): 25.4 µM (inactive)
GI50 (TK-10): 22.4 µM (inactive)
GI50 (U-251): 22.4 µM (inactive)
GI50 (UACC-257): 25.2 µM (inactive)
GI50 (UACC-62): 18.8 µM (inactive)
GI50 (UO-31): 29 µM (inactive)

COc1ccc(-c2c3c(n(C4OC(COC(C)=O)C(OC(C)=O)C(OC(C)=O)C4OC(C)=O)c(=S)c2C#N)CC(C)(C)CC3=O)cc1 (stereo not given)
GI50 (A549): 65.5 µM (inactive)
GI50 (BT-549): 62.1 µM (inactive) and 32.1 µM (inactive)
GI50 (CAKI-1): 59.2 µM (inactive)
GI50 (COLO 205): > 100 µM (inactive) and 50.4 µM (inactive)
GI50 (EKVX): 26.6 µM (inactive)
GI50 (HCC 2998): 47.6 µM (inactive) and 61.1 µM (inactive)
GI50 (HOP-62): > 100 µM (inactive)
GI50 (HT-29): 33.1 µM (inactive) and 58.2 µM (inactive)
GI50 (Hs-578T): 40.4 µM (inactive) and 36.2 µM (inactive)
GI50 (IGROV-1): > 100 µM (inactive) and 74.5 µM (inactive)
GI50 (KM12): 74.8 µM (inactive)
GI50 (LOX IMVI): 27.5 µM (inactive) and 29.3 µM (inactive)
GI50 (MCF7): 57.3 µM (inactive) and 28.8 µM (inactive)
GI50 (MDA-MB-231): 37.9 µM (inactive) and 35.6 µM (inactive)
GI50 (MDA-N): 33 µM (inactive) and 65.8 µM (inactive)
GI50 (MOLT-4): 20.7 µM (inactive) and 27.8 µM (inactive)
GI50 (Malme-3M): > 100 µM (inactive) and 56.2 µM (inactive)
GI50 (NCI-H226): 55.5 µM (inactive) and 44.8 µM (inactive)
GI50 (NCI-H460): > 100 µM (inactive) and 61.4 µM (inactive)
GI50 (NCI-H522): 43.5 µM (inactive) and 22.6 µM (inactive)
GI50 (OVCAR-5): 61 µM (inactive)
GI50 (PC-3): 59.6 µM (inactive) and 34.4 µM (inactive)
GI50 (RPMI-8226): 32.6 µM (inactive) and 26.5 µM (inactive)
GI50 (SF-295): 78 µM (inactive)
GI50 (SF-539): 35.2 µM (inactive) and 22.8 µM (inactive)
GI50 (SK-OV-3): 96.2 µM (inactive)
GI50 (SN12C): > 100 µM (inactive) and 55.3 µM (inactive)
GI50 (SNB-19): 97.3 µM (inactive)
GI50 (SR): 24.9 µM (inactive) and 37.3 µM (inactive)
GI50 (SW-620): 37.1 µM (inactive)
GI50 (T47D): 40.9 µM (inactive) and 64.1 µM (inactive)
GI50 (UACC-62): 30.3 µM (inactive) and 33 µM (inactive)
GI50 (UO-31): > 100 µM (inactive) and 55.3 µM (inactive)
